This note sets out measurements from patent publication US20080299041A1, “HETEROCYCLIC INDENE DERIVATIVES AND THEIR RADIOISOTOPE LABELED COMPOUNDS FOR IMAGING BETA-AMYLOID DEPOSITION” (SEOUL NATIONAL UNIVERSITY INDUSTRY FOUNDATION, priority 2007, published 2008).

One data set addresses Aβ1-40 aggregates (Homo sapiens, UniProt P05067). The data set is described as follows: In vitro competitive binding assay with 3′-[^125I]I-BTA-1 as radioligand, Aβ1-40 aggregates. Particulars: Aβ aggregates 20 nM, 3 h at room temperature, pH 7.2. As for the experimental part: (§1) Affinity to β-amyloid can be measured by incubation with β-amyloid precipitate and count the bound form after separation by centrifugation. Kd or Ki values are obtained either by saturation binding assay or competition assay.
(§2) Aβ1-40 or Aβ1-42 peptides were incubated in phosphate buffer (pH=7.2) overnight to prepare precipitates as reported in literatures, and then aliquoted and stored at −70[…]. (Klunk, W. E.; Wang, Y.; Huang, G-F.; Debnath, M. L.; Holt D. P.; Mathis, C. A. Uncharged thioflavin-T derivatives bind to amyloid-beta protein with high affinity and readily enter the brain. Life Sci. 2001, 69(13), […]; Zhuang, Z.-P.; Kung, M.-P.; Wilson, A.; Lee, C.-W.; Plossl, K.; Hou, C.; Holtzman, D. M.; Kung, H. F.; Structure-activity relationship of imidazo[1,2-a]pyridines as ligands for detecting β-amyloid plaques in the brain. J. Med. Chem. 2003; 46(2), 237-243)
(§3) The binding affinities of benzothiophene derivatives to Aβ aggregates were evaluated by competitive binding assays using 3′-[^125I]I-BTA-1 as a radioligand. […] Nonspecific binding was determined by incubation in the presence of 10 μM thioflavin-T. The reaction mixtures were filtered through Whatman GF/B glass filters and washed twice with 3 mL of 10% ethanol aliquots. Filters were counted using a Nat well counter. Ki values of the benzothiophene derivatives were then calculated from the results and represented on Table 1.

The target of another data set is Aβ1-42 aggregates (Homo sapiens, UniProt P05067). Description: In vitro competitive binding assay with 3′-[^125I]I-BTA-1 as radioligand, Aβ1-42 aggregates. The conditions noted are these: Aβ aggregates 20 nM, 3 h at room temperature, pH 7.2. The protocol:
as §1, §2, §3

Data set [1] in a line: Biodistribution experiment in mice after tail vein injection of ^18F labeled compound. It counts as in vivo, Male ICR mice. The protocol:
The penetration of BBB can be estimated by animal experiment. The radiolabeled compounds are intravenously injected to mice, and then the brains are obtained at 2 min, 30 min, and 60 min. The radioactivities of the brain are expressed as the percentage of injected dose per brain weight (gram).
FIG. 2. Biodistribution graph observed in each organ after injection of 2-(4′-[^18F]fluoromethyl)phenyl-1,3-benzothiazole through the mice tail veins. The mice were sacrificed at 2 min, 30 min and 60 min after injection, respectively, and then organs were taken out. The organs were weighed and their radioactivities were measured. The radioactivity distribution in each organ was calculated as the percentage of injected dose per organ weight (gram).
Male ICR mice (n=4/group, 29.9±1.6 g) were injected with 148 kBq/0.1 mL of 2-(4′-[^18F]fluoromethyl)phenyl-1,3-benzothiazole through the tail vein. These injected mice were sacrificed by decapitation 2, 30 and 60 min post-injection. Blood, muscle, lung, liver, spleen, stomach, intestine, brain, and bone were rapidly separated, weighed and counted using a NaI well counter. Results are expressed as percentages of the injected dose per gram of tissue (% ID/g), and represented in FIG. 2. Brain uptake at […] was 5.62±0.28% ID/g and ratio to 30 min was 3.75±0.97, which represent rapid uptake and wash out to and from normal brain.
A comparative mice biodistribution study using 2-(4′-O-(2′-[^18F]Fluoroethyl)hydroxyphenyl)benzothiophene and 2-(4′-O-(3′-[^18F]Fluoropropyl)hydroxyphenyl) benzothiophene was performed according to the same procedure with above Experiment 2.

Aβ1-40 aggregates, sequence (P05067 672-711 limits assumed): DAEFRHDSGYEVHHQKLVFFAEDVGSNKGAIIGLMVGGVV
Aβ1-42 aggregates, sequence (P05067 672-713 limits assumed): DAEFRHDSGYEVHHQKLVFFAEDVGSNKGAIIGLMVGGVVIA

The Ki is a measure of affinity in units of concentration, obtained from inhibition or displacement. Lower therefore signals a stronger hold on the target. For the molecule “2-(4′-fluoromethyl)phenyl-1,3-benzothiazole”, the inhibitory constant (Ki) turned out to be 26.9 ± 5.04 nM at Aβ1-40 aggregates and 28.1 ± 4.44 nM on Aβ1-42 aggregates.

In data set [1] (2 min post-injection), `[18F]CCOc1ccc(-c2cc3ccccc3s2)cc1` [2-(4′-O-(2′-[^18F]Fluoroethyl)hydroxyphenyl)benzothiophene] registered a Blood uptake of 3.5 ± 0.2 % ID/g, a Bone uptake of 2.5 ± 0.2 % ID/g, a Brain uptake of 5.2 ± 0.4 % ID/g and a Fat uptake of 0.9 ± 0.3 % ID/g. In data set [1] (2 min post-injection), this molecule returned a Heart uptake of 8.8 ± 1.0 % ID/g, an Intestine uptake of 2.7 ± 0.2 % ID/g, a Kidney uptake of 11.8 ± 0.9 % ID/g and a Liver uptake of 9.3 ± 1.5 % ID/g. In data set [1] (2 min post-injection), the Lung uptake worked out at 9.3 ± 1.1 % ID/g, the Muscle uptake is on record as 2.9 ± 0.3 % ID/g, the Spleen uptake is 4.4 ± 0.8 % ID/g and the Stomach uptake turned out to be 2.1 ± 0.7 % ID/g. In data set [1] (30 min post-injection), the Blood uptake was 3.8 ± 0.4 % ID/g, the Bone uptake was determined as 3.3 ± 0.2 % ID/g, the Brain uptake was determined as 5.2 ± 0.5 % ID/g and the Fat uptake was 2.1 ± 1.0 % ID/g. In data set [1] (30 min post-injection), this molecule registered a Heart uptake of 3.2 ± 0.2 % ID/g, an Intestine uptake of 7.2 ± 0.6 % ID/g, a Kidney uptake of 4.1 ± 0.7 % ID/g and a Liver uptake of 3.9 ± 0.7 % ID/g. Besides, in data set [1] (30 min post-injection), the Lung uptake is given as 3.4 ± 0.6 % ID/g, the Muscle uptake turned out to be 2.7 ± 0.3 % ID/g, the Spleen uptake was found to be 2.7 ± 0.5 % ID/g and the Stomach uptake is 2.5 ± 0.3 % ID/g.

In data set [1] (2 min post-injection), `[18F]CCCOc1ccc(-c2cc3ccccc3s2)cc1` [2-(4′-O-(3′-[^18F]Fluoropropyl)hydroxyphenyl)benzothiophene] registered a Blood uptake of 3.3 ± 0.5 % ID/g, a Bone uptake of 2.2 ± 0.2 % ID/g, a Brain uptake of 3.3 ± 0.2 % ID/g and a Fat uptake of 0.7 ± 0.1 % ID/g. In addition, in data set [1] (2 min post-injection), the Heart uptake is given as 11.9 ± 0.6 % ID/g, the Intestine uptake is 2.4 ± 0.2 % ID/g, the Kidney uptake is recorded as 13.5 ± 1.2 % ID/g and the Liver uptake is 17.0 ± 0.6 % ID/g. Besides, in data set [1] (2 min post-injection), the Lung uptake was determined as 10.2 ± 1.4 % ID/g, the Muscle uptake is reported as 3.0 ± 0.2 % ID/g, the Spleen uptake came to 4.1 ± 1.2 % ID/g and the Stomach uptake was found to be 1.8 ± 0.5 % ID/g. For the same molecule, in data set [1] (30 min post-injection), the Blood uptake was 1.4 ± 0.1 % ID/g, the Bone uptake stood at 10.7 ± 0.6 % ID/g, the Brain uptake turned out to be 4.0 ± 0.4 % ID/g and the Fat uptake is 1.9 ± 0.4 % ID/g. In data set [1] (30 min post-injection), this molecule had a Heart uptake of 1.8 ± 0.3 % ID/g, an Intestine uptake of 5.5 ± 0.4 % ID/g, a Kidney uptake of 4.4 ± 0.4 % ID/g and a Liver uptake of 6.1 ± 0.6 % ID/g. Besides, in data set [1] (30 min post-injection), the Lung uptake amounted to 2.2 ± 0.6 % ID/g, the Muscle uptake was 1.6 ± 0.1 % ID/g, the Spleen uptake is listed as 1.5 ± 0.2 % ID/g and the Stomach uptake turned out to be 1.0 ± 0.4 % ID/g.

As for `[18F]Cc1ccc(-c2nc3ccccc3s2)cc1` [2-(4′-[^18F]fluoromethyl)phenyl-1,3-benzothiazole], the “Bone uptake (in words; in vivo defluorination)” value in data set [1] (tail vein) is “High bone uptake”. In data set [1] (tail vein, "at min" post-injection (time figure missing)), this molecule returned a Brain uptake of 5.62±0.28 % ID/g. Besides, the “Brain uptake ratio to 30 min” value in data set [1] (tail vein, early brain uptake / 30 min) worked out at 3.75±0.97.

On to `FCc1ccc(-c2nc3ccccc3o2)cc1` [Benzoxaxole, 2-(4′-fluoromethyl)phenyl-1,3-benzoxazole], for which the inhibition constant (Ki) on Aβ1-40 aggregates is 75.7 ± 43.2 nM; at Aβ1-42 aggregates, 59.9 ± 5.03 nM.
